Key:
[1] = system: genotype 1b-Con1 subgenomic replicon cell line; assay: microbe, parasite or virus in culture; format: cell-based, HCV; settings: Hepatitis C virus, read-out: EC50 1b
[2] = system: genotype 1a-H77 subgenomic replicon cell line; assay: microbe, parasite or virus in culture; format: cell-based, HCV; settings: Hepatitis C virus, read-out: EC50 1a
[3] = target: T1, HCV polymerase 1B (Δ21 NS5B, BK) (Hepatitis C virus genotype 1b, UniProt P26663); assay: biochemical
T1 construct: 20 to 50 nM Δ21 NS5B
How it was run: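 Δ21 NS5B (genotype 1b, BK […]) preincubated 15 min RT with inhibitor, 2 mM MnCl2, pH 7.4, 60–125 μM GTP; started with 20 μM CTP/ATP, 1 μM 3H-UTP, 5 nM template RNA, run 2–4 h RT. Spermine-precipitated RNA filter-captured, scintillation counted; IC50 from tight-binding (Morrison) fit.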

[4] = target: T2, HCV polymerase 1A (Δ21 NS5B, H77) (Hepatitis C virus genotype 1a, UniProt P27958); assay: biochemical; settings: IC50 1a
T2 construct: 20 to 50 nM Δ21 NS5B
How it was run: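 Radiometric assay with Δ21 NS5B (H77): 20 μM CTP, 20 μM ATP, 1 μM ^3H-UTP, 5 nM template RNA, 2–4 h at room temperature. RNA precipitated with spermine, filter-captured and counted. IC50 from non-linear fit of retained cpm vs inhibitor concentration (tight-binding equation).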

T1 sequence (P26663 2420-2989, stated change not applied): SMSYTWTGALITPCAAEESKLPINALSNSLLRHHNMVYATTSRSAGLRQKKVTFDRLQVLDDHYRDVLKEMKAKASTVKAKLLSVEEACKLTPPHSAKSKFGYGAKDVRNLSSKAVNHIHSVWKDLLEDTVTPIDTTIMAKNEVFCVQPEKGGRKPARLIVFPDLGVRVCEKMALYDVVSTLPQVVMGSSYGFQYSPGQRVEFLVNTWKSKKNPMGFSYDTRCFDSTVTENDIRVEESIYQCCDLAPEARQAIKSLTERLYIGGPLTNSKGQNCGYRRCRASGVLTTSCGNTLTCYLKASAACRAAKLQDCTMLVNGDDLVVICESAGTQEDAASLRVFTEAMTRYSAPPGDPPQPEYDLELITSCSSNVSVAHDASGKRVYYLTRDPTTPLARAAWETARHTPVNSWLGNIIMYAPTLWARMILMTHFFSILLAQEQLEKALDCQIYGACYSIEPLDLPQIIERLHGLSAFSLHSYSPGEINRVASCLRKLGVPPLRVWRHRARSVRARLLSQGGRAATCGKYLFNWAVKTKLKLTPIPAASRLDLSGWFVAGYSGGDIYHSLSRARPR
T2 sequence (P27958 2421-2990, stated change not applied): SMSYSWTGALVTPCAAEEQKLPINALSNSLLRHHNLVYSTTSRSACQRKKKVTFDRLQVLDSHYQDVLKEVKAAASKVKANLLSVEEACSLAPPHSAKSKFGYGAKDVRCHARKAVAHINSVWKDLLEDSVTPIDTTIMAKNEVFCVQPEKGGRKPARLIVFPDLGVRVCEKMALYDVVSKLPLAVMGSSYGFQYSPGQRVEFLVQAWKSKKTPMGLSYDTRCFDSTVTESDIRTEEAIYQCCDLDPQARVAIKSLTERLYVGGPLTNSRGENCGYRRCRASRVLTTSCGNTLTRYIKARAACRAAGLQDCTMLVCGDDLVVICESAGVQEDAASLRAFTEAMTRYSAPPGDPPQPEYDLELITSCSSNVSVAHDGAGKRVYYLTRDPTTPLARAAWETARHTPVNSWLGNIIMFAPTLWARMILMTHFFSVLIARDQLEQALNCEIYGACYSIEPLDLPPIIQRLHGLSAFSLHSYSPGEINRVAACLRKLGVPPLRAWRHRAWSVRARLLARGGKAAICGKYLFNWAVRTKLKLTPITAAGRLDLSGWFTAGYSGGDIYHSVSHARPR

| SMILES | EC50 [1] [µM] | EC50 [2] [µM] | IC50 [3] [µM] | IC50 [4] [µM] |
| --- | --- | --- | --- | --- |
| CC(C)(C)c1cc(N2CCC(=O)NC2=O)cc(C(=O)Nc2ccc(NS(C)(=O)=O)cc2)c1O [IA-L3-1.6, 3-tert-butyl-5-(2,4-dioxotetrahydropyrimidin-1(2H)-yl)-2-hydroxy-N-(4-(methylsulfonamido)phenyl)benzamide] | 0.01 to 0.1 | 0.1 to 1 | < 0.01 | 0.01 to 0.1 |
| CC(C)CS(=O)(=O)Nc1ccc(NC(=O)c2cc(N3CCC(=O)NC3=O)cc(C(C)(C)C)c2O)cc1 [IA-L3-1.7, 3-tert-butyl-5-(2,4-dioxotetrahydropyrimidin-1(2H)-yl)-2-hydroxy-N-(4-(2-methylpropylsulfonamido)phenyl)benzamide] | > 1 | > 1 | 0.01 to 0.1 | 0.1 to 1 |
| COCCS(=O)(=O)Nc1ccc(NC(=O)c2cc(N3CCC(=O)NC3=O)cc(C(C)(C)C)c2O)cc1 [IA-L3-1.8, 3-tert-butyl-5-(2,4-dioxotetrahydropyrimidin-1(2H)-yl)-2-hydroxy-N-(4-(2-methoxyethylsulfonamido)phenyl)benzamide] | 0.1 to 1 | > 1 | 0.01 to 0.1 | 0.01 to 0.1 |
| CC(C)(C)c1cc(N2CCC(=O)NC2=O)cc(C(=O)Nc2ccc(NS(=O)(=O)CC(F)(F)F)cc2)c1O [IA-L3-1.9, 3-tert-butyl-5-(2,4-dioxotetrahydropyrimidin-1(2H)-yl)-2-hydroxy-N-(4-(2,2,2-trifluoroethylsulfonamido)phenyl)benzamide] | > 1 | > 1 | 0.01 to 0.1 | 0.1 to 1 |
| CC(C)(C)c1cc(N2CCC(=O)NC2=O)cc(C(=O)Nc2ccc(NS(=O)(=O)c3ccccc3)cc2)c1O [IA-L3-1.10, 3-tert-butyl-5-(2,4-dioxotetrahydropyrimidin-1(2H)-yl)-2-hydroxy-N-(4-(phenylsulfon-amido)phenyl)benzamide] | 0.1 to 1 | 0.1 to 1 | 0.01 to 0.1 | 0.01 to 0.1 |
| CC(C)(C)c1cc(N2CCC(=O)NC2=O)cc(C(=O)Nc2cccc(CNS(C)(=O)=O)c2)c1O [IA-L3-1.11, 3-tert-butyl-5-(2,4-dioxotetrahydropyrimidin-1(2H)-yl)-2-hydroxy-N-(3-(methylsulfon-amidomethyl)phenyl)benzamide] | > 1 | > 1 | 0.1 to 1 | > 1 |
| CC(C)(C)c1cc(N2CCC(=O)NC2=O)cc(C(=O)Nc2ccc(NS(=O)(=O)Cc3ccccc3)cc2)c1O [IA-L3-1.12, 3-tert-butyl-5-(2,4-dioxotetrahydropyrimidin-1(2H)-yl)-2-hydroxy-N-(4-(phenylmethyl-sulfonamido)phenyl)benzamide] | > 1 | > 1 | 0.01 to 0.1 | 0.1 to 1 |
| Cc1noc(C)c1S(=O)(=O)Nc1ccc(NC(=O)c2cc(N3CCC(=O)NC3=O)cc(C(C)(C)C)c2O)cc1 [IA-L3-1.13, 3-tert-butyl-N-(4-(3,5-dimethylisoxazole-4-sulfonamido)phenyl)-5-(2,4-dioxotetrahydro-pyrimidin-1(2H)-yl)-2-hydroxybenzamide] | > 1 | > 1 | < 0.01 | 0.1 to 1 |
| CC(C)(C)c1cc(N2CCC(=O)NC2=O)cc(C(=O)Nc2ccc(CC(=O)O)cc2)c1O [IA-L3-1.15, 2-(4-(3-tert-butyl-5-(2,4-dioxotetrahydropyrimidin-1(2H)-yl)-2-hydroxybenzamido)phenyl)-acetic acid] | > 1 | > 1 | 0.1 to 1 | > 1 |
| CNS(=O)(=O)Cc1ccc(NC(=O)c2cc(N3CCC(=O)NC3=O)cc(C(C)(C)C)c2O)cc1 [IA-L3-1.16, 3-tert-butyl-5-(2,4-dioxotetrahydropyrimidin-1(2H)-yl)-2-hydroxy-N-(4-(N-methylsulfamoylmethyl)phenyl)benzamide] | > 1 | > 1 | 0.01 to 0.1 | > 1 |
| CC(C)(C)c1cc(N2CCC(=O)NC2=O)cc(C(=O)Nc2ccc(OS(C)(=O)=O)cc2)c1O [IA-L3-1.19, 4-(3-tert-butyl-5-(2,4-dioxotetrahydropyrimidin-1(2H)-yl)-2-hydroxybenzamido)phenyl methanesulfonate] | > 1 | > 1 | 0.01 to 0.1 | 0.1 to 1 |
| CC(C)(C)c1cc(N2CCC(=O)NC2=O)cc(C(=O)Nc2ccccc2S(C)(=O)=O)c1O [IA-L3-1.20, 3-tert-butyl-5-(2,4-dioxotetrahydropyrimidin-1(2H)-yl)-2-hydroxy-N-(2-(methylsulfonyl)phenyl)benzamide] | > 1 | > 1 | 0.01 to 0.1 | > 1 |
| CC(C)(C)c1cc(N2CCC(=O)NC2=O)cc(C(=O)Nc2ccc(S(C)(=O)=O)cc2)c1O [IA-L3-1.21, 3-tert-butyl-5-(2,4-dioxotetrahydropyrimidin-1(2H)-yl)-2-hydroxy-N-(4-(methylsulfonyl)phenyl)benzamide] | > 1 | > 1 | 0.1 to 1 | > 1 |
| CC(C)(C)c1cc(N2CCC(=O)NC2=O)cc(C(=O)Nc2ccccc2S(N)(=O)=O)c1O [IA-L3-1.22, 3-tert-butyl-5-(2,4-dioxotetrahydropyrimidin-1(2H)-yl)-2-hydroxy-N-(2-sulfamoylphenyl)benzamide] | > 1 | > 1 | 0.01 to 0.1 | 0.1 to 1 |
| COc1c(C(=O)Nc2ccccc2)cc(N2CCC(=O)NC2=O)cc1C(C)(C)C [IA-L3-1.24, 3-tert-butyl-5-(2,4-dioxotetrahydropyrimidin-1(2H)-yl)-2-methoxy-N-phenylbenzamide] | > 1 | > 1 | 0.1 to 1 | 0.1 to 1 |
| COc1c(C(=O)N(C)c2ccc(NS(C)(=O)=O)cc2)cc(N2CCC(=O)NC2=O)cc1C(C)(C)C [IA-L3-1.27, 3-tert-butyl-5-(2,4-dioxotetrahydropyrimidin-1(2H)-yl)-2-methoxy-N-methyl-N-(4-(methylsulfonamido)phenyl)benzamide] | > 1 | > 1 | 0.1 to 1 | 0.1 to 1 |
| COc1c(C(=O)Nc2ccc(CC(=O)O)cc2)cc(N2CCC(=O)NC2=O)cc1C(C)(C)C [IA-L3-1.30, 2-(4-(3-tert-butyl-5-(2,4-dioxotetrahydropyrimidin-1(2H)-yl)-2-methoxybenzamido)phenyl)-acetic acid] | > 1 | > 1 | 0.1 to 1 | > 1 |
| CNS(=O)(=O)Cc1ccc(NC(=O)c2cc(N3CCC(=O)NC3=O)cc(C(C)(C)C)c2OC)cc1 [IA-L3-1.31, 3-tert-butyl-5-(2,4-dioxotetrahydropyrimidin-1(2H)-yl)-2-methoxy-N-(4-(N-methylsulfamoylmethyl)phenyl)benzamide] | > 1 | > 1 | > 1 | > 1 |
| COc1c(C(=O)Nc2ccc(O)cc2)cc(N2CCC(=O)NC2=O)cc1C(C)(C)C [IA-L3-1.33, 3-tert-butyl-5-(2,4-dioxotetrahydropyrimidin-1(2H)-yl)-N-(4-hydroxyphenyl)-2-methoxybenzamide] | > 1 | > 1 | 0.1 to 1 | > 1 |

Reference: patent US8415351B2 (priority 2007, dated 2013)
